# “Also recorded” adds a separate entry of the source.
# B1: Chemokine (C-C motif) ligand 3 (protein, listed as Homo sapiens)
# chain: MQVSTAALAVLLCTMALCNQFSASLAADTPTACCFSYTSRQIPQNFIADYFETSSQCSKPGVIFLTKRSRQVCADPSEEWVQKYVSDLELSA
# notes: class 1 immunomodulator
# Legend:
# [1] = tested on: P. aeruginosa PA103; experiment: Implant model of infection with PA103; type: in vivo; details: C57B mice, 10^6 PA103, topical at surgical site at time of surgery & infection, 10 ng or 100 ng, dose-dependent, 24 h following infection, FIG. 2A
# Experimental: (§1) The implant model of infection in C57B mice was used for 10^6 PA103 (FIG. 2A) or 10^6 USA300 MRSA (FIG. 2C). The wound model of infection was used for 10^6 PA103 in C57BL mice (FIG. 2B) or diabetic db/db mice (FIG. 2D). Infection was carried out at the time of surgery by adding bacteria directly to the surgical sites. Immunomodulators, namely, LPS (10 ng or 100 ng), fMLP (10 ng or 100 ng), CCL3 (1 μg) were added topically at the surgical sites at the time of surgery & infection. GM-CSF (10 μg/kg), tobramycin (Tob at 3.5 mg/kg), and vancomycin (40 mg/kg) were added systemically by i.p. injection 1 h before surgical implantation and infection. Infection levels were determined 24 h following infection (N>4 animals/group; NS=not significant, * p<0.01, ** p<0.001, ***p<0.0001 One-way ANOVA).
# (§2) We assessed these immunomodulators for their ability to control wound and/or implant SS's in normal (C57BL/6) or diabetic (db/db) mice. We acknowledge that diabetic individuals are not as immunocompromised as other immunocompromised patient groups. […] All immunomodulators were added locally at the surgical sites at the time of infection, except GM-CSF (10 μg/kg) which was administered systemically by i.p. injection 1 h prior to surgery per its FDA-approved route of delivery. […] CCL3 and GM-CSF are also tested using the implant model of infection. Here, we tested CCL3 and GM-CSF in the wound model of infection in C57B mice.
# Implant surgery and wound surgery and surgical site infection are performed according to the following method. On the day of surgery, all mice are anesthetized by an intraperitoneal injection of a ketamine/xylazine mixture (90 mg/kg ketamine+5 mg/kg xylazine for mice). The back of the animals is shaved using an electric shave and scrubbed with alcohol swabs 3 times, a topical antiseptic solution (Hibiclens; chlorhexidine gluconate) is applied to the skin. The surgical procedures are performed with sterile instruments, sterile surgical gloves, and aseptic techniques as follows. […]
# [2] = tested on: inflammatory responses (IL-1 β, TNFα); experiment: Neutrophilia and inflammatory responses in diabetic wounds; type: in vivo, db/db mice
# Text: P. aeruginosa PA103 10^3 N=4; Significance determined as compared to PBS *<0.05, **p<0.01, ***p<0.001.
# FIG. 13A illustrates that TLR4 ligand increases antimicrobial defenses in diabetic wounds against P. aeruginosa and FIG. 13B TLR4 ligand stimulates inflammatory responses in diabetic wounds. N=4; Significance determined as compared to PBS *<0.05, **p<0.01, ***p<0.001.
# Tissue-Tek O.C.T. (Sakura); Lysing Matrix D (MP Biomedicals); Collagenase (Roche Diagnostics), Hematoxylin and eosin (H&E); DNase 1 (Sigma-Aldrich); Hyluronidase, Streptozotocin (Sigma-Aldrich); Trizol (Invitrogen); CD45 antibody (eBioscience, Inc); Ly6C; Ly6G; CD11b; CD3 (BioLegend); CD68; GAPDH (Sigma-Aldrich). Ly6G and CD68 (Abcam); Primer pairs for GAPDH were from Qiagen. Masson's trichrome stain (Sigma-Aldrich); Picrosirius red (Abcam); Fibronectin (Chemicon International); Insulin slow-release capsules (Linplant; LinShin, Toronto, Canada) CCL3 (R&D Systems) fMLP (Sigma-Aldrich); II-1β ELISA (R&D Systems); TNF-α ELISA (R&D Systems).
# [3] = tested on: P. aeruginosa PA103; experiment: Wound model of infection with PA103 in normal (C57BL) mice; type: in vivo; details: for infection control against P. aeruginosa PA103 in normal wounds: C57B mice, immunomodulator added locally at time of infection, compared to PBS, FIGS. 3A, 4A, 4B, 6A
# Experimental: as §1
# (15A) C57BL/6 mice received 40 mg/kg prophylaxis (Sys) vancomycin (Vanc) or 3.5 mg/kg tobramycin (Tobra) by i.p. injection. (15A) 1 h after antibiotic administration, 106 CFU of USA300 was added to implant after insertion into facia (Implant Model). (15B) 1 h after antibiotic administration, 10^6CFU of USA300 or 106CFU PA103 (Pa) were added full-thickness wounds in of C57BL/6 (Wound Model). Infection levels at implant surgical site (Tissue & Implant) or a distant site (Spleen), or wound tissues were assessed 24 h following infection. (N>4 animals/group, * p<0.01, ***p<0.0001, One-way ANOVA).
# as §2
# Implant surgery and wound surgery and surgical site infection are performed according to the following method. On the day of surgery, all mice are anesthetized by an intraperitoneal injection of a ketamine/xylazine mixture (90 mg/kg ketamine+5 mg/kg xylazine for mice). The back of the animals is shaved using an electric shave and scrubbed with alcohol swabs 3 times, a topical antiseptic solution (Hibiclens; chlorhexidine gluconate) is applied to the skin. The surgical procedures are performed with sterile instruments, sterile surgical gloves, and aseptic techniques as follows. For wound surgical procedure, a sterile biopsy punch (5-7 mm diameter) is used to punch through the full thickness of the back skin below the shoulder blades. Four 5-7 mm skin wounds are made on the back of each mouse. Wounds placed in this area cannot be reached by the animals and therefore are protected from self-licking. For implant surgery, a 4-mm long lateral skin incision is made on the upper back, and the skin is retracted. The space above the muscle is opened using blunt dissection with fine forceps, to create a rostral fascia indentation. Then, immunomodulators at indicated concentrations (in a 20 μL volume) or PBS control are injected into the fascia indentation.
Molecule,P. aeruginosa infection levels on both the implants and tissues surrounding implants [1],"inflammatory responses in diabetic wounds ([2]; compared to PBS, FIG. 13B)",infection control against P. aeruginosa PA103 in normal wounds [3],"neutrophilia in infected diabetic wounds ([2]; P. aeruginosa PA103 10^3, FIG. 12A)","persistent inflammatory responses (IL-1 β, TNFα) in infected diabetic wounds ([2]; P. aeruginosa PA103 10^3, FIG. 12B, 12C)","controlling PA103 infection, compared with prophylaxis tobramycin ([3]; C57B mice wound model, topical CCL3 1 μg, both at 10^3 and 10^6 CFU, tobramycin 3.5 mg/kg i.p., FIG. 2B)"
lipopolysaccharide [LPS],significantly reduced,stimulates,enhance; also recorded: significantly improved,,,
"CSCC[C@H](NC=O)C(=O)N[C@@H](CC(C)C)C(=O)N[C@@H](Cc1ccccc1)C(=O)O [fMLP, N-Formylmethionyl-leucyl-phenylalanine]",significantly reduced,,enhance; also recorded: significantly improved,,,
B1,,,enhances; also recorded: effective,does not lead to,does not lead to,as effective

# Source: patent US20210268070A1, “Use of Immunomodulators to Control Infection and Stimulate Healing in Normal and Diabetic Wounds” (priority 2018, published 2021)
